Experimental data published in patent US12433846B2, “Drug delivery system for treatment of cancer” (SINTEF TTO AS, priority 2019, dated 2025).
Several values for one entry are separate records, joined by “and”; a condition that tells them apart may be missing. Identical values can stand only once.

Key:
[1] = test system: PMCA-1 (peritoneal metastases from colorectal cancer); experiment: In vivo treatment effect in orthotopic PMCA-1 peritoneal carcinomatosis model; conditions: PMCA-1, 15 mg/kg
[2] = test system: PMCA-3 (pseudomyxoma peritonei); experiment: In vivo treatment effect in orthotopic PMCA-3 peritoneal carcinomatosis model; conditions: PMCA-3, 15 mg/kg

## CO[C@H]1C(=O)[C@]2(C)[C@@H](OC)C[C@H]3OC[C@@]3(OC(C)=O)[C@H]2[C@H](OC(=O)c2ccccc2)[C@]2(O)C[C@H](OC(=O)[C@H](O)[C@@H](NC(=O)OC(C)(C)C)c3ccccc3)C(C)=C1C2(C)C [CBZ, cabazitaxel]
[1]; IP (FIG. 4)
  mice still alive at day 90 after the injection: 4 out of 6
[1]; IV (FIG. 4)
  mice still alive at day 90 after the injection: 3 out of 6
[1]; intraperitoneal (FIG. 1)
  tumor growth (growth index) compared to vehicle treatment: significantly inhibited tumor growth
[1]; intraperitoneal, day 100
  mice cured (sacrificed on day 100 with no detectable tumor): 3/6 and 3 out of 6
[2]; IP (FIG. 6)
  mice still alive at day 60 after the injection: none of the mice
[2]; IV (FIG. 6)
  mice alive at day 70 after the injection: none of the mice
[2]; intraperitoneal (FIG. 2)
  tumor growth (growth index) compared to vehicle treatment: significantly reduced tumor growth
[2]; intraperitoneal, day 100
  mice cured (sacrificed on day 100 with no detectable tumor): No animals were cured
